In patent US20240317683A1, “METHODS OF TREATING MOOD DISORDERS” (priority 2020, published 2024):
Counter-ions that a name gives are not always drawn.

How the values were obtained:
[1] = Pharmacokinetics in mice, plasma; assay type: in vivo, C57BL/6 mice; conditions: for AUC(0-t) / Tmax / half-life / Cmax / clearance: male, C57BL/6, mouse plasma; for F: mouse, based on plasma AUC0-last
Protocol: (§1) Animals. Male C57BL/6 mice, aged 8-12 weeks, were used in these studies. Four mice were housed in each cage. Temperature and humidity were maintained at 22±3° C. and 30-70%, respectively, and illumination was controlled to give a 12 h light and 12 h dark cycle. Temperature and humidity were recorded by an auto-controlled data logger system. All animals were provided laboratory rodent diet. Reverse osmosis water treated with ultraviolet light was provided ad libitum. Animals were randomly assigned to treatment groups.
(§2) Drugs. Compounds 4 and 5 were prepared as described above. All other compounds were commercially obtained. Test compounds were used as the hydrogen fumarate (1 and 2) or hydrochloride (3, 4, and 5) salts and were dissolved in a vehicle consisting of normal saline. They were then administered intravenously (IV) via the tail vein, subcutaneously (SC), or orally (PO) via gavage at a dose of 1 or 10 mg/kg (calculated based on the free base) and at a volume of 5 ml/kg body weight.
(§3) Sample Collection and Bioanalysis. Blood samples (approximately 60 μL) were collected under light isoflurane anesthesia (Surgivet®) from the retro orbital plexus at 0.08, 0.25, 0.5, 1, 2, 4, 8, and 24 h (4 animals per time point). Immediately after blood collection, plasma was harvested by centrifugation at 4,000 rpm for 10 min at 4° C. and samples were stored at −70±10° C. until bioanalysis. Following blood collection, animals were immediately sacrificed, the abdominal vena-cava was cut open, and the whole body was perfused from the heart using 10 mL of normal saline, and brain samples were collected from all animals. After isolation, brain samples were rinsed three times in ice-cold normal saline (for 5-10 seconds/rinse using ˜5-10 mL normal saline in disposable petri dish for each rinse) and dried on blotting paper. Brain samples were homogenized using ice-cold phosphate-buffered saline (pH 7.4). Total homogenate volume was three times the tissue weight. All homogenates were stored at −70±10° C. until bioanalysis. For bioanalysis, 25 μL aliquots of plasma/brain study samples or spiked plasma/brain calibration standards were added to individual pre-labeled micro-centrifuge tubes followed by 100 μL of an internal standard solution (glipizide, 500 ng/ml in acetonitrile) except for blanks, where 100 μL of acetonitrile was added. Samples were vortexed for 5 minutes and then centrifuged for 10 minutes at 4,000 rpm at 4° C. Following centrifugation, 100 μL of each clear supernatant was transferred to a 96 well plate and analyzed with a fit-for-purpose LC-MS/MS method, with authentic samples of each analyte used for calibration and identification.
(§4) Data Analysis. Pharmacokinetic parameters were estimated using the non-compartmental analysis tool of Phoenix® WinNonlin software (Ver 8.0).

[2] = Pharmacokinetics in mice, brain; assay type: in vivo, C57BL/6 mice; conditions: for Tmax / half-life / Cmax: male, C57BL/6; for Tmax / half-life / Cmax / AUC0-last: mouse brain; for F: mouse, based on brain AUC0-last
Protocol: as §1, §2, §3, §4

[3] = test system: monoamine oxidase A and B (MAO-A and MAO-B); assay: Stability in the presence of monoamine oxidases (human liver mitochondria); assay type: in vitro ADME; conditions: for MAO stability (in words): human liver mitochondria preparation; for half-life at 1 μM / microsomal CLint at 1 μM: human liver mitochondria, pH 7.4; for half-life at 1 μM / microsomal CLint at 1 μM / Remaining (t = 60 min): human mitochondrial preparation, 1 μM
Protocol: Liver Mitochondria Incubations. Human liver mitochondria (Xenotech H0610.M) were used. Mitochondrial incubations were carried out in multi-well plates. […] Six time points over 60 minutes were analyzed.

5-HT2A = 5-HT2A (Homo sapiens (Human), UniProt P28223); assay: FLIPR Ca2+ flux agonist assay, 5-HT2A; assay type: cell-based; conditions: for 5-HT2A % Act @ Max Dose / EC50: HEK293
Protocol: (§5) A solution of 250 mM probenecid in 1 mL FLIPR assay buffer was prepared fresh. This was combined with a fluorescent dye (Fluo-4 Direct™) to make a final assay concentration of 2.5 mM. […] The fluorescent dye was then added to the assay plate along with assay buffer to a final volume of 40 μL. The cell plate was incubated for 50 min at 37° C. and 5% CO2 and placed into the FLIPR Tetra along with the compound plate. 10 μL of references and compounds were then transferred from the compound plate into the cell plate and the fluorescent signal was read.

5-HT2B = 5-HT2B (Homo sapiens (Human), UniProt P41595); assay: FLIPR Ca2+ flux agonist assay, 5-HT2B; assay type: cell-based; conditions: for 5-HT2B % Act @ Max Dose: Ca2+ flux, HEK293
Chain of 5-HT2B (P41595 whole entry, looked up, species assumed): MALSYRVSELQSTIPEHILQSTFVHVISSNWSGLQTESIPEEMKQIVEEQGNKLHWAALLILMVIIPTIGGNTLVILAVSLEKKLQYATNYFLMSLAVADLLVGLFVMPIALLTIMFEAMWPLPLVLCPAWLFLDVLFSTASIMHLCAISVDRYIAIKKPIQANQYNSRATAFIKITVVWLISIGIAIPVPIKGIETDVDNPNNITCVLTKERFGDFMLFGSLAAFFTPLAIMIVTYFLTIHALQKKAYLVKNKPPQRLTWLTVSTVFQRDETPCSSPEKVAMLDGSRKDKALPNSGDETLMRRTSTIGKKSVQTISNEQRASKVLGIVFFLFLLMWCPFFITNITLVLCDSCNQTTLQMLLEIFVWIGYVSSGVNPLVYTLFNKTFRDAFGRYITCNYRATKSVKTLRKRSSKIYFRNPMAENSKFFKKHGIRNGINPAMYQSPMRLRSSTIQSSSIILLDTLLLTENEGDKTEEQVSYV
Protocol: as §5

[4] = Stability in mouse brain homogenate; assay type: in vitro ADME, CD-1 mice; conditions: for half-life at 1 μM: male, CD-1; for half-life at 1 μM / % Compound Remaining (after 120 min): mouse brain homogenate, 37° C., 1 μM
Protocol: Mouse Brain Homogenate Stability. Frozen mouse brain homogenate (pooled from male CD-1 mice, BioreclamationIVT, MSE00BRAINMZA) was thawed in a water bath at 37° C. immediately prior to use. Positive controls and test compounds (final concentration in incubation medium=1 μM for test compounds and 2 μM for controls, all with 2% DMSO) were incubated in duplicate for each time point (0, 10, 30, 60, and 120 min) in the mouse brain homogenate at a total reaction volume of […] at 37° C. At the end of each incubation period, reactions were immediately quenched with 400 μL of acetonitrile containing internal standard (200 ng/mL tolbutamine and 200 ng/ml labetalol) and mixed thoroughly. Plates were then sealed, shaken for 20 min, and centrifuged at 4,000 rpm and 4° C. for 20 min. Aliquots of 50 μL of each supernatant were diluted into 100 μL of water and the mixtures were then shaken again for 10 min.

[5] = IV, 10 mg/kg, read-out: Cmax (C0 back-extrapolated to t = 0)

CCN(C)CCc1c[nH]c2cccc(O)c12 [Compound 6]
AUC(0-t) ([1]; SC, 10 mg/kg): 1410 ng·h/mL
Tmax ([1]; SC, 10 mg/kg): 4.8 min
half-life ([1]; SC, 10 mg/kg): 66 min
Cmax ([1]; SC, 10 mg/kg, read-out: Cmax): 1160 ng/mL
Tmax ([2]; SC, 10 mg/kg): 30 min
half-life ([2]; SC, 10 mg/kg): 64.2 min
Cmax ([2]; SC, 10 mg/kg, read-out: Cmax): 2920 ng/g
AUC0-last ([2]; SC, 10 mg/kg): 3,549.18 h*ng/g
MAO stability (in words) [3]: highly stable
half-life at 1 μM [3]: > 145 min
microsomal CLint at 1 μM [3]: < 15.9 µL/min/mg
Remaining (t = 60 min) [3]: 112.3%
5-HT2A % Act @ Max Dose (5-HT2A): 103.0%
EC50 (5-HT2A): 15.1 nM
5-HT2B % Act @ Max Dose (5-HT2B): 1.09%
stability in mouse brain homogenate (in words) [4]: intermediate stability
half-life at 1 μM [4]: 45.8 min
% Compound Remaining (after 120 min) [4]: 16.7%

CCN(C)CCc1c[nH]c2ccc(F)cc12 [Compound 4, N-ethyl-2-(5-fluoro-1H-indol-3-yl)-N-methylethan-1-amine hydrochloride]
AUC(0-t) ([1]; IV, 10 mg/kg): 1790 ng·h/mL
clearance ([1]; IV, 10 mg/kg): 92.8 mL/min/kg
half-life ([1]; IV, 10 mg/kg): 51.6 min
Cmax [1, 5]: 2910 ng/mL
AUC(0-t) ([1]; SC, 1 mg/kg): 57.5 ng·h/mL
Tmax ([1]; SC, 1 mg/kg): 4.8 min
half-life ([1]; SC, 1 mg/kg): 27 min
Cmax ([1]; SC, 1 mg/kg, read-out: Cmax): 83.2 ng/mL
AUC(0-t) ([1]; SC, 10 mg/kg): 1170 ng·h/mL
Tmax ([1]; SC, 10 mg/kg): 30 min
half-life ([1]; SC, 10 mg/kg): 54 min
Cmax ([1]; SC, 10 mg/kg, read-out: Cmax): 631 ng/mL
AUC(0-t) ([1]; oral, 10 mg/kg): 623 ng·h/mL
Tmax ([1]; oral, 10 mg/kg): 15 min
half-life ([1]; oral, 10 mg/kg): 80.4 min
Cmax ([1]; oral, 10 mg/kg, read-out: Cmax): 272 ng/mL
F ([1]; SC, 1 mg/kg): 32%
F ([1]; SC, 10 mg/kg): 65%
F ([1]; oral, 10 mg/kg): 35%
half-life ([2]; IV, 10 mg/kg): 56.4 min
Cmax [2, 5]: 7980 ng/g
Tmax ([2]; SC, 1 mg/kg): 15 min
half-life ([2]; SC, 1 mg/kg): 22.2 min
Cmax ([2]; SC, 1 mg/kg, read-out: Cmax): 461 ng/g
Tmax ([2]; SC, 10 mg/kg): 60 min
half-life ([2]; SC, 10 mg/kg): 49.2 min
Cmax ([2]; SC, 10 mg/kg, read-out: Cmax): 3510 ng/g
Tmax ([2]; oral, 10 mg/kg): 15 min
half-life ([2]; oral, 10 mg/kg): 79.2 min
Cmax ([2]; oral, 10 mg/kg, read-out: Cmax): 1400 ng/g
AUC0-last ([2]; IV, 10 mg/kg): 10,471.19 h*ng/g
AUC0-last ([2]; SC, 1 mg/kg): 320.97 ng·h/g
AUC0-last ([2]; SC, 10 mg/kg): 6,672.16 h*ng/g
AUC0-last ([2]; oral, 10 mg/kg): 3,835.86 h*ng/g
F ([2]; SC, 1 mg/kg): 31%
F ([2]; SC, 10 mg/kg): 64%
F ([2]; oral, 10 mg/kg): 37%
MAO stability (in words) [3]: intermediate stability
half-life at 1 μM [3]: > 145 min
microsomal CLint at 1 μM [3]: < 15.9 µL/min/mg
Remaining (t = 60 min) [3]: 75.0%
selectivity for 5-HT2A over 5-HT2B (in words) (5-HT2A): highly selective
5-HT2A % Act @ Max Dose (5-HT2A): 87.6%
EC50 (5-HT2A): 20.6 nM
EC50 (5-HT2B): > 10000 nM
5-HT2B % Act @ Max Dose (5-HT2B): 0.79%
stability in mouse brain homogenate (in words) [4]: intermediate stability
half-life at 1 μM [4]: 54.3 min
% Compound Remaining (after 120 min) [4]: 20.7%

CCN(C)CCc1c[nH]c2ccccc12 [Compound 2, methylethyltryptamine]
AUC(0-t) ([1]; IV, 10 mg/kg): 545 ng·h/mL
clearance ([1]; IV, 10 mg/kg): 304 mL/min/kg
half-life ([1]; IV, 10 mg/kg): 88.8 min
Cmax [1, 5]: 963 ng/mL
AUC(0-t) ([1]; oral, 10 mg/kg): 238 ng·h/mL
Tmax ([1]; oral, 10 mg/kg): 15 min
half-life ([1]; oral, 10 mg/kg): 82.2 min
Cmax ([1]; oral, 10 mg/kg, read-out: Cmax): 102 ng/mL
F ([1]; oral, 10 mg/kg): 44%
half-life ([2]; IV, 10 mg/kg): 92.4 min
Cmax [2, 5]: 6250 ng/g
Tmax ([2]; oral, 10 mg/kg): 30 min
half-life ([2]; oral, 10 mg/kg): 451 min
Cmax ([2]; oral, 10 mg/kg, read-out: Cmax): 957 ng/g
AUC0-last ([2]; IV, 10 mg/kg): 3,923.27 h*ng/g
AUC0-last ([2]; oral, 10 mg/kg): 1,988.41 h*ng/g
F ([2]; oral, 10 mg/kg): 51%
MAO stability (in words) [3]: intermediate stability
half-life at 1 μM [3]: > 145 min
microsomal CLint at 1 μM [3]: < 15.9 µL/min/mg
Remaining (t = 60 min) [3]: 84.5%
Emax (5-HT2A): 36.2%
selectivity for 5-HT2A over 5-HT2B (in words) (5-HT2A): highly selective
5-HT2A % Act @ Max Dose (5-HT2A): 36.2%
5-HT2B % Act @ Max Dose (5-HT2B): 22.5%
stability in mouse brain homogenate (in words) [4]: intermediate stability
half-life at 1 μM [4]: 123 min
% Compound Remaining (after 120 min) [4]: 47.8%
